Tests used:
[1] = In vitro drug release (dialysis membrane tubing, PBS); assay type: physicochemical; details: FIG. 5
Method: (iii) In vitro Drug Release: The rate of TA release from the NPs was measured by adapting a previously reported method. 40 Dialysis membrane tubing, MWCO 10 000 Da. (Spectrum Laboratories, Rancho Dominguez, Calif.) was soaked in deionized H2O overnight. 1 ml of the NP suspension was added to the dialysis membrane tubing after being briefly sonicated and was placed into 100 ml of PBS covered and stirring at 100 rpm at 37° C. 1 mL samples were removed at predetermined intervals over 10 days and replaced with fresh PBS. Samples were analyzed using UV spectroscopy at a wavelength of 240 nm (lmax) and compared to standard dilutions of TA in PBS (r^2=0.989) to determine the percentage of drug released over 10 days.
500 μL of 1 mg/mL DIG sol and 500 μL of DIG NPs in (cellulose) dialysis membrane tubing
Samples were taken in 750 μL increments and the respective amount of PBS was re-added

ARPE-19 cells = test: Cytotoxicity, MTT assay; assay type: cell-based, human; details: FIG. 6
Method: (iv) Cytotoxicity: The cytotoxicity of the TA Nanoparticles was assessed in ARPE-19 cells (cells of a human retinal pigment epithelial cell line) by the 3-(4,5-dimethylthiazol-2-yl)-2,5-diphenyltetrazolium bromide salt (MTT) assay. Briefly, cells were seeded in 24-well plates at a density of 5×10^4 cells/ml for 24 h to achieve confluency before treatment. […] Cell culture media were aspirated, and […] of MTT reagent solution (1 mg/ml) was added to each well. Cells were incubated at 37° C. and 5% CO2 for 4 h, after which the MTT reagent solution was aspirated and 1 mL of DMSO was added to each well. Plates were allowed to shake gently for 10 min before being read by Synergy H4 plate reader (Biotek Industries, Inc., Winooski, Vt.) at absorbance of 570 nm.
Media was removed and cells were washed with 500 μL of HBSS prior to treatment.
Cell Treatments • 3 control wells with 500 μL Experimental Media only • 3 wells with DIG sol at 0.5 μM and 1 μM concentrations: (0.5 μM: 9.76 μL DIG sol+490.24 μL Exp. Media) • (1 μM: 19.52 μL DIG sol+480.48 μL Exp. Media) • 3 wells with DIG NPs at 0.5 μM and 1 μM concentrations: (0.5 μM: 1.012 μL DIG NPs+[…] Exp. Media) • (1 μM: 2.024 μL DIG NPs+497.97 μL Exp. Media)
MTT Cell treatments: same as above w/o CoCl2 step
Prepare MTT reagent: 0.5 mg/mL (in basal media) and cover with aluminum foil
Remove media from each well and wash with HBSS […]

Question: Which results are given for `C[C@H]1O[C@@H](O[C@H]2[C@@H](O)C[C@H](O[C@H]3[C@@H](O)C[C@H](O[C@H]4CC[C@@]5(C)[C@H](CC[C@@H]6[C@@H]5C[C@@H](O)[C@]5(C)[C@@H](C7=CC(=O)OC7)CC[C@]65O)C4)O[C@@H]3C)O[C@@H]2C)C[C@H](O)[C@@H]1O` [digoxin]?
Answer: Drug release (in words) [1]: sustained therapeutic release; Cell toxicity (in words) (ARPE-19 cells): relatively low cell toxicity
